In ChEMBL document CHEMBL1157845, “Structure-activity relationship of new anti-tuberculosis agents derived from oxazoline and oxazole benzyl esters” (Eur J Med Chem, 2010):
Converted amounts (≈) assume the structure as drawn. The source made the active and inactive calls. Unless noted, the rule behind the calls is not given here.

Columns and labels:
[1] = system: Mycobacterium tuberculosis; test: Antimycobacterial activity against Mycobacterium tuberculosis H37Rv ATCC 27294 incubated 10 days under anaerobic condition measured after 24 hrs recovery in air by luciferase based low oxygen recovery assay; type: functional
Vero = test: Cytotoxicity against african green monkey Vero cells by colorimetric assay; type: cell-based; conditions: Chlorocebus sabaeus
[2] = system: Mycobacterium tuberculosis; test: Antimycobacterial activity against Mycobacterium tuberculosis H37Rv ATCC 27294 in GAS medium after 1 week by microplate alamar blue assay; type: functional; conditions: H37Rv ATCC 27294, 168 h
[3] = system: Mycobacterium tuberculosis; test: Antimycobacterial activity against Mycobacterium tuberculosis Erdman infected in BALB/c mouse assessed as reduction of bacterial load at 200 mg/kg, po qd for 5 days per week administered 60 days after infection measured after 85 days post infection; type: functional, organism-based; design: dose 200 mg/kg
[4] = system: Mycobacterium tuberculosis; test: Antimycobacterial activity against Mycobacterium tuberculosis H37Rv ATCC 27294 in GAST medium after 1 week by microplate alamar blue assay; type: functional; conditions: H37Rv ATCC 27294, 168 h
Liver microsomes = test: Metabolic stability in Sprague-Dawley rat microsomes assessed as compound remaining after 15 mins by HPLC analysis; type: ADME, Microsome; conditions: 0.25 h
Mycolicibacterium vaccae [5] = test: Antimycobacterial activity against Mycobacterium vaccae 10670 by agar diffusion assay; type: functional, organism-based
Mycolicibacterium aurum [6] = test: Antimycobacterial activity against Mycobacterium aurum DSM 43536; type: functional, organism-based
[7] = system: Mycolicibacterium smegmatis; test: Antimycobacterial activity against Mycobacterium smegmatis SG 987; type: functional, organism-based
Escherichia coli = test: Antibacterial activity against Escherichia coli SG 458; type: functional, organism-based
Mycobacterium avium [8] = test: Antimycobacterial activity against Mycobacterium avium MAC 108; type: functional, organism-based
Mycobacterium avium [9] = test: Antimycobacterial activity against Mycobacterium avium MAC 109; type: functional, organism-based
Mycolicibacterium vaccae [10] = test: Antimycobacterial activity against Mycobacterium vaccae 10670; type: functional, organism-based
Mycobacterium avium [11] = test: Antimycobacterial activity against Mycobacterium avium MAC 101; type: functional, organism-based
Staphylococcus aureus = test: Antibacterial activity against Staphylococcus aureus SG 511; type: functional, organism-based
Mycobacterium avium [12] = test: Antimycobacterial activity against Mycobacterium avium MAC 116; type: functional, organism-based
Mus musculus [13] = test: Toxicity in mouse assessed as behavioral change at 100 mg/kg, po qd for 5 days followed by 2 days rest and 200 mg/kg, po qd for 5 days; type: organism-based; conditions: in vivo
[14] = Chemical stability in simulated gastric fluid assessed as compound remaining after 2 hrs by HPLC analysis; type: physicochemical; conditions: simulated gi fluid
Candida albicans = test: Antifungal activity against Candida albicans; type: functional, organism-based
Micrococcus luteus = test: Antibacterial activity against Micrococcus luteus ATCC 10240; type: functional, organism-based
Proteus vulgaris = test: Antibacterial activity against Proteus vulgaris OX 19; type: functional, organism-based
Mus musculus [15] = test: Toxicity in mouse assessed as change in gross appearance at 100 mg/kg, po qd for 5 days followed by 2 days rest and 200 mg/kg, po qd for 5 days; type: organism-based; conditions: in vivo
Colletotrichum = test: Antifungal activity against Glomerella; type: functional, organism-based
Mycolicibacterium aurum [16] = test: Antimycobacterial activity against Mycobacterium aurum SB 66; type: functional, organism-based
[17] = system: Mycolicibacterium fortuitum; test: Antimycobacterial activity against Mycobacterium fortuitum B by agar diffusion assay; type: functional, organism-based
Mycobacterium avium [18] = test: Antimycobacterial activity against Mycobacterium avium MAC 100; type: functional, organism-based
[19] = system: Mycolicibacterium fortuitum; test: Antimycobacterial activity against Mycobacterium fortuitum B; type: functional, organism-based
Mus musculus [20] = test: Toxicity in mouse assessed as change in body weight at 100 mg/kg, po qd for 5 days followed by 2 days rest and 200 mg/kg, po qd for 5 days; type: organism-based; conditions: in vivo
[21] = system: Sporobolomyces salmonicolor; test: Antimicrobial activity against Sporobolomyces salmonicolor SBUG 549; type: functional, organism-based
Bacillus subtilis = test: Antibacterial activity against Bacillus subtilis ATCC 6633; type: functional, organism-based

For `O=C(OCc1ccccc1)c1coc(-c2ccc([N+](=O)[O-])cc2F)n1`, the MIC [1] was 11.6 µM (≈ 3.97 µg/mL), the IC50 (Vero) was greater than 128 µM and the MIC [2] was 0.7 µM (≈ 0.24 µg/mL). For the same molecule, the Activity [3] was “inactive” and the MIC [4] was 1.65 µM (≈ 0.565 µg/mL).
For `O=C(OCc1ccccc1)c1coc(-c2cccc(Cl)c2)n1`, the IC50 (Vero) was greater than 128 µM, the MIC [2] was 1.25 µM (≈ 0.392 µg/mL) and the Activity [3] was “inactive”. The MIC [4] was 0.99 µM (≈ 0.311 µg/mL).
With `COc1ccc(CNC(=O)c2coc(-c3ccc([N+](=O)[O-])cc3)n2)cc1OC` the IC50 (Vero) was greater than 128 µM, the MIC [2] was 35.8 µM (≈ 13.7 µg/mL) and the Activity [3] was “inactive”. The MIC [4] was 49.5 µM (≈ 19 µg/mL).
For `O=C(OCc1ccccc1)c1coc(-c2cncc(-c3ccccc3)c2)n1`, the IC50 (Vero) was greater than 128 µM, the MIC [2] was 1.49 µM (≈ 0.531 µg/mL) and the Activity [3] was “inactive”. The MIC [4] was 0.98 µM (≈ 0.349 µg/mL).
In the case of `O=C(OCc1ccccc1)c1coc(-c2ccccc2Cl)n1`, the Stability (Liver microsomes) is reported as 8.8%, the Activity (Mycolicibacterium vaccae [5]) is reported as “Active” and the Activity (Mycolicibacterium aurum [6]) is reported as “inactive”. The Activity [7] was “inactive”, the Activity (Escherichia coli) was “inactive” and the Activity (Mycobacterium avium [8]) was “inactive”. The Activity (Mycobacterium avium [9]) was “inactive”, the Activity (Mycolicibacterium vaccae [10]) was “inactive” and the Activity (Mycobacterium avium [11]) was “inactive”. For the same molecule, the Activity (Staphylococcus aureus) was “inactive”, the Activity (Mycobacterium avium [12]) was “inactive” and the Activity (Mus musculus [13]) was “Non-toxic”. The MIC [1] was 11.4 µM (≈ 3.58 µg/mL), the IC50 (Vero) was greater than 128 µM and the Stability [14] was 4.2%. The Activity (Candida albicans) was “inactive”, the MIC [2] was 0.73 µM (≈ 0.229 µg/mL) and the Activity (Micrococcus luteus) was “inactive”. The Activity (Proteus vulgaris) was “inactive”, the Activity (Mus musculus [15]) was “Non-toxic” and the Activity [3] was “inactive”. For the same molecule, the Activity (Colletotrichum) was “inactive”, the Activity (Mycolicibacterium aurum [16]) was “inactive” and the Activity [17] was “Active”. For the same molecule, the MIC [4] was 1.69 µM (≈ 0.53 µg/mL), the Activity (Mycobacterium avium [18]) was “inactive” and the Activity [19] was “inactive”. The Activity (Mus musculus [20]) was “Non-toxic”, the Activity [21] was “inactive” and the Activity (Bacillus subtilis) was “inactive”.
In the case of `COc1ccc(C2=N[C@H](C(=O)OCc3ccccc3)CO2)cc1`, the IC50 (Vero) is reported as greater than 128 µM, the MIC [2] is reported as 26.1 µM (≈ 8.13 µg/mL) and the Activity [3] is reported as “inactive”. The MIC [4] was 2.29 µM (≈ 0.713 µg/mL).
With `COc1ccc(-c2nc(C(=O)OCc3ccccc3)co2)cc1Cl` the IC50 (Vero) was greater than 128 µM, the MIC [2] was 2.35 µM (≈ 0.808 µg/mL) and the Activity [3] was “inactive”. The MIC [4] was 5.33 µM (≈ 1.83 µg/mL).
With `O=C(OCc1ccccc1)c1coc(-c2ccc(F)cc2[N+](=O)[O-])n1` the IC50 (Vero) was greater than 128 µM, the MIC [2] was 2.4 µM (≈ 0.821 µg/mL) and the Activity [3] was “inactive”. For the same molecule, the MIC [4] was 9.9 µM (≈ 3.39 µg/mL).
In the case of `O=C(OCc1ccccc1)[C@@H]1COC(c2cccc(Cl)c2)=N1`, the IC50 (Vero) is reported as greater than 128 µM, the MIC [2] is reported as 11.6 µM (≈ 3.66 µg/mL) and the Activity [3] is reported as “inactive”. For the same molecule, the MIC [4] was 1.8 µM (≈ 0.568 µg/mL).
In the case of `CCOc1ccc(-c2nc(C(=O)OCc3ccccc3)co2)cc1`, the MIC [1] is reported as 29.7 µM (≈ 9.6 µg/mL), the IC50 (Vero) is reported as greater than 128 µM and the MIC [2] is reported as 15.5 µM (≈ 5.01 µg/mL). The Activity [3] was “inactive” and the MIC [4] was 1.97 µM (≈ 0.637 µg/mL).
In the case of `O=C(OCc1ccccc1)c1coc(-c2cncc(Br)c2)n1`, the MIC [1] is reported as greater than 128 µM, the IC50 (Vero) is reported as greater than 128 µM and the MIC [2] is reported as 2.37 µM (≈ 0.851 µg/mL). The Activity [3] was “inactive” and the MIC [4] was 2.24 µM (≈ 0.805 µg/mL).
With `Cc1oc(-c2ccccc2OCc2ccccc2)nc1C(=O)OCc1ccccc1` the IC50 (Vero) was 110 µM, the MIC [2] was 28.3 µM (≈ 11.3 µg/mL) and the Activity [3] was “inactive”. It also gave an MIC [4] greater than 128 µM.
`Cc1oc(-c2ccccc2)nc1C(=O)OCc1ccccc1` showed an MIC [1] greater than 128 µM, an IC50 (Vero) of 35 µM and an MIC [2] of 3.92 µM (≈ 1.15 µg/mL). For the same molecule, the Activity [3] was “inactive” and the MIC [4] was 15.2 µM (≈ 4.46 µg/mL).
In the case of `O=C(OCc1ccccc1)c1coc(-c2cnccn2)n1`, the MIC [2] is reported as 7.32 µM (≈ 2.06 µg/mL), the Activity [3] is reported as “inactive” and the MIC [4] is reported as 22.5 µM (≈ 6.33 µg/mL).
In the case of `O=C(OCc1ccccc1)c1coc(-c2cccc(Br)c2)n1`, the MIC [2] is reported as 1.93 µM (≈ 0.691 µg/mL), the Activity [3] is reported as “inactive” and the MIC [4] is reported as 6.08 µM (≈ 2.18 µg/mL).
